The term IC50 denotes the point on the concentration scale where inhibition reaches its midpoint.

The test concerns the target T1, VEGFR-2 (Homo sapiens, UniProt P35968).
T1 construct: purchased Cell Signaling Technology CO
Briefly: Protein kinase activity by ELISA in vitro, VEGFR-2. Format: biochemical. The note with it: for inhibition at 0.1 µM: concentration of 10^−7 mol/L, read-out: kinase inhibition ratio, VEGFR-2; for IC50: read-out: IC50 of the VEGF Receptor Kinase. The procedure:
An ELISA (Enzyme-Linked Immunosorbent Sandwich Assay) procedure may be used to detect and measure the level of protein tyrosine kinase activity. […] According to the principle of ELISA, a monoclonal antibody can react with phosphorylated substrate specially, so biotin-labeled substrate is binded to streptavidin-coated ELISA plate, and then binded to a HRP-labeled goat anti-mouse antibody. Finally TMB is added for a color reaction and the value of A450-A630 is read by ELISA plate reader. The OD value can reflect the inhibitory activity of the VEGFR-2, PDGFR-β, c-Kit tyrosine kinases etc. treated with the test compounds at the different concentrations. So, the assay may be used to measure the inhibition ratio of the compounds for the tyrosine kinase activity. Similar assays can be designed along the same lines for any PK using techniques well known in the art.
According to the principle of ELISA, a monoclonal antibody can react with phosphorylated substrate specially, so biotin-labeled substrate is binded to streptavidin-coated ELISA plate, and then binded to a HRP-labeled goat anti-mouse antibody. Finally TMB is added for a color reaction and the value of A450-A630 is read by ELISA plate reader. The OD value can reflect the inhibitory activity of the VEGFR-2, PDGFR-β c-Kit tyrosine kinases treated with the test compounds at the different concentrations. So, the assay may be used to measure the inhibition ratio of the compounds for the tyrosine kinase activity. Similar assays can be designed along the same lines for any PK using techniques well known in the art.
VEGF Receptor 2, PDGF Receptor-beta and c-kit kinase assay kit (include kinase, 1.25M DTT, substrate peptide, 10 mM ATP, P-Tyr-100 Mouse antibody, 4×HTScan tyrosine kinase buffer), Cell Signaling Technology CO.; HRP labeled goat anti mouse IgG, Protein Tech CO.; TMB, Pierce CO.; Streptavidin Microtitration Plate, Greiner Bio-one CO.; Infinite M200 Reader, Tecan CO.
1.2.1 Immediately transfer enzyme from −80° C. to ice. Allow enzyme to thaw on ice then at 4° C. and centrifugate transiently to the bottom of centrifuge tube, then lay back on ice quickly
1.2.2 Add 10 μl of DTT (1.25 M) to 2.5 ml of 4×HTScan tyrosine kinase buffer (240 mM HEPES pH 7.5, 20 mM MgCl2, 20 mM MnCl2, 12 μM Na3VO4). Transfer 0.6 ml of DTT/Kinase buffer to each enzyme tube to make 4× reaction Cocktail. Incubate 12.5 μl of the 4× reaction cocktail with 12.5 μl/well prediluted compound of interest for 5 minutes at room temperature, and set blank control, free-enzyme control, negative control and positive control. 1.2.3 Add 10 μl 10 mM ATP to 1.25 ml 6 μM substrate peptide. Dilute the mixture with dH20 to 2.5 ml to make 2×ATP/substrate cocktail. Add 25 μl of 2×ATP/substrate cocktail to 25 μl/well preincubated reaction cocktail/compound. Incubate reaction plate at room temperature for 30 minutes. 1.2.4 Add 50 μl/well stop Buffer (50 mM EDTA, pH 8) to stop the reaction. Transfer 25 μl of each reaction and 75 μl dH2O/well to a 96-well streptavidin coated plate and incubate at room temperature for 60 minutes. Wash three times with 200 μl/well PBS/T(1×PBS, 0.05% Tween-20). 1.2.5 Dilute primary antibody, Phospho-Tyrosine mAb (P-Tyr-100), 1:500 in PBS/T with 1% BSA. Add 100 μl/well primary antibody. Incubate at room temperature for 60 minutes. Wash three times with 200 μl/well PBS/T(1×PBS, 0.05% Tween-20). 1.2.6 Prepare appropriate dilution of HRP labeled secondary antibody, 1:500 in PBS/T with 1% BSA. Add 100 μl/well secondary antibody solution. Incubate at room temperature for 30 minutes. Wash five times with 200 μl/well PBS/T 1.2.7 Add 100 μl/well TMB substrate and incubate at room temperature for 1-10 minutes. Add 50 μl 2M H2SO4 to stop the color reaction. Read the absorbance of A450-A630 with the Infinite M200 microtiter plate reader. 1.2.8 Calculate the inhibition ratio with the following formula: […]
Background: ELISA stands for enzyme-linked immunosorbent assay.

The structures appear in SMILES notation.

T1 sequence (P35968 20-1356): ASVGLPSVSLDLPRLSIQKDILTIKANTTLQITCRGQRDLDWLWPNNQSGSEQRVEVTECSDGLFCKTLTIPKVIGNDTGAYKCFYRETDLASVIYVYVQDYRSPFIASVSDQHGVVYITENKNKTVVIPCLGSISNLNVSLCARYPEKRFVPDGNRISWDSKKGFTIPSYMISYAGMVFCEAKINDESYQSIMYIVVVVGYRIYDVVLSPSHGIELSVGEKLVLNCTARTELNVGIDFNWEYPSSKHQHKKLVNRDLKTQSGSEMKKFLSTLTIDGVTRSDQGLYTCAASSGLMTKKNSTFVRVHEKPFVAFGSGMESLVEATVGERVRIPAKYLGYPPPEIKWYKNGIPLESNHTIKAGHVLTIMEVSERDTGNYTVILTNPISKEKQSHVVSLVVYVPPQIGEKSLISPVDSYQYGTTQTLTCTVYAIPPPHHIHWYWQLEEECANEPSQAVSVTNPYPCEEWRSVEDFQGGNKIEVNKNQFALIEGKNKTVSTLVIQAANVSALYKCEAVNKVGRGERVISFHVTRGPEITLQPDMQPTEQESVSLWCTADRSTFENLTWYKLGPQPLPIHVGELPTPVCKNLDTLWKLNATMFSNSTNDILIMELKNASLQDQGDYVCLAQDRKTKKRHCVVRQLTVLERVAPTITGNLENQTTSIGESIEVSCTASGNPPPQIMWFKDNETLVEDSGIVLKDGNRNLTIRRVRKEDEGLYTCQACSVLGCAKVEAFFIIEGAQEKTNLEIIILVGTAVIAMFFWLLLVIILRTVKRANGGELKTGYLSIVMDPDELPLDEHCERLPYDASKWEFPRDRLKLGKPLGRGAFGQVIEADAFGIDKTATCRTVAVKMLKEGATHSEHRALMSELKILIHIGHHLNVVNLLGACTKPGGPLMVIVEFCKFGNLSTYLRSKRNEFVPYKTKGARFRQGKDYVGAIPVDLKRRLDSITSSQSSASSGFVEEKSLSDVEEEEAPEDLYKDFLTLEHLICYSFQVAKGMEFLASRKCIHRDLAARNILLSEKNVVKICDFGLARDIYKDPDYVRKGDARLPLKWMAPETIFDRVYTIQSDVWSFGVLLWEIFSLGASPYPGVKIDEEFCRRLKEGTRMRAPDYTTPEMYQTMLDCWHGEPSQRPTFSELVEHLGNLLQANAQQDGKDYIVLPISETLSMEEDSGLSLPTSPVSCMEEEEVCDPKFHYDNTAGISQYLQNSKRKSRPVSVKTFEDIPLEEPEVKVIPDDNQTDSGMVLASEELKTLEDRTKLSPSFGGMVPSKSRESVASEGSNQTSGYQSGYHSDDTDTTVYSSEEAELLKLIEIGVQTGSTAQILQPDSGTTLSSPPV

Regarding `CCN(CC)CCNC(=O)c1c(C)[nH]c2c1CCC/C2=C1/C(=O)Nc2ccc(F)cc21` [I-2, N-(2-(diethylamino)ethyl)-2-methyl-7-[1,2-dihydro-5-fluoro-2-oxo-3H-indol-(Z)-3-ylidene]-4,5,6,7-tetrahydro-1H-indole-3-carboxamide], the inhibition at 0.1 µM was 75%.
`CCN(CC)CCNC(=O)c1c(C)[nH]c2c1CCC/C2=C1/C(=O)Nc2ccc(Cl)cc21` [I-3, N-(2-(diethylamino)ethyl)-2-methyl-7-[1,2-dihydro-5-chloro-2-oxo-3H-indol-(Z)-3-ylidene]-4,5,6,7-tetrahydro-1H-indole-3-carboxamide]: the inhibition at 0.1 µM is 54% and the IC50 stood at 5.3 nM.
In the same order, the values of `CCN(CC)CCNC(=O)c1c(C)[nH]c2c1CCC/C2=C1/C(=O)Nc2ccc(C)cc21` [I-4, N-(2-(diethylamino)ethyl)-2-methyl-7-[1,2-dihydro-5-methyl-2-oxo-3H-indol-(Z)-3-ylidene]-4,5,6,7-tetrahydro-1H-indole-3-carboxamide] are 76% and 5.6 nM.
As to `CCN(CC)CCNC(=O)c1c(C)[nH]c2c1CCC/C2=C1/C(=O)Nc2ccccc21` [I-5, N-(2-(diethylamino)ethyl)-2-methyl-7-[1,2-dihydro-2-oxo-3H-indol-(Z)-3-ylidene]-4,5,6,7-tetrahydro-1H-indole-3-carboxamide], the inhibition at 0.1 µM was 74% and the IC50 worked out at 9 nM.
Consider `Cc1[nH]c2c(c1C(=O)NCCN(C)C)CCC/C2=C1/C(=O)Nc2ccc(F)cc21` [I-6, N-(2-(dimethylamino)ethyl)-2-methyl-7-[1,2-dihydro-5-fluoro-2-oxo-3H-indol-(Z)-3-ylidene]-4,5,6,7-tetrahydro-1H-indole-3-carboxamide], for which the inhibition at 0.1 µM came out at 79%.
Regarding `Cc1[nH]c2c(c1C(=O)NCCCN(C)C)CCC/C2=C1/C(=O)Nc2ccc(Cl)cc21` [I-7, N-(3-(dimethylamino)propyl)-2-methyl-7-[1,2-dihydro-5-chloro-2-oxo-3H-indol-(Z)-3-ylidene]-4,5,6,7-tetrahydro-1H-indole-3-carboxamide], the inhibition at 0.1 µM stood at 82%.
As for `Cc1[nH]c2c(c1C(=O)NCCO)CCC/C2=C1/C(=O)Nc2ccccc21` [I-8, N-(2-hydroxyethyl)-2-methyl-7-[1,2-dihydro-2-oxo-3H-indol-(Z)-3-ylidene]-4,5,6,7-tetrahydro-1H-indole-3-carboxamide], the inhibition at 0.1 µM was found to be 76%.
For the compound `Cc1[nH]c2c(c1C(=O)NCCO)CCC/C2=C1/C(=O)Nc2ccc(F)cc21` [I-9, N-(2-hydroxyethyl)-2-methyl-7-[1,2-dihydro-5-fluoro-2-oxo-3H-indol-(Z)-3-ylidene]-4,5,6,7-tetrahydro-1H-indole-3-carboxamide], the 50% inhibitory concentration (IC50) stood at 30 nM.
For the compound `Cc1[nH]c2c(c1C(=O)N1CCN(C)CC1)CCC/C2=C1/C(=O)Nc2ccc(F)cc21` [I-14, 2-methyl-3-(4-methylpiperazine-1-carbonyl)-7-[1,2-dihydro-5-fluoro-2-oxo-3H-indol-(Z)-3-ylidene]-4,5,6,7-tetrahydro-1H-indole], the concentration for half-maximal inhibition (IC50) is 79 nM.
For `CCN(CC)CC(O)CNC(=O)c1c(C)[nH]c2c1CCC/C2=C1/C(=O)Nc2ccccc21` (stereo not drawn) [I-63, N-(3-(diethylamino)-2-hydroxypropyl)-2-methyl-7-[1,2-dihydro-2-oxo-3H-indol-(Z)-3-ylidene]-4,5,6,7-tetrahydro-1H-indole-3-carboxamide], the inhibition at 0.1 µM was 80%.
For the compound `Cc1[nH]c2c(c1C(=O)NCC(O)CN1CCOCC1)CCC/C2=C1/C(=O)Nc2ccc(F)cc21` (stereo not drawn) [I-68, N-(2-hydroxy-3-morpholinopropyl)-2-methyl-7-[1,2-dihydro-5-fluoro-2-oxo-3H-indol-(Z)-3-ylidene]-4,5,6,7-tetrahydro-1H-indole-3-carboxamide], the IC50 is 43 nM.
Consider `Cc1[nH]c2c(c1C(=O)NCC(O)CN1CCCC1)CCC/C2=C1/C(=O)Nc2ccccc21` (stereo not drawn) [I-70, N-(2-hydroxy-3-(pyrrolidin-1-yl)propyl)-2-methyl-7-[1,2-dihydro-2-oxo-3H-indol-(Z)-3-ylidene]-4,5,6,7-tetrahydro-1H-indole-3-carboxamide], for which the inhibition at 0.1 µM is 84%.
As to `Cc1[nH]c2c(c1C(=O)NCC(O)CN1CCCC1)CCC/C2=C1/C(=O)Nc2ccc(F)cc21` (stereo not drawn) [I-71, N-(2-hydroxy-3-(pyrrolidin-1-yl)propyl)-2-methyl-7-[1,2-dihydro-5-fluoro-2-oxo-3H-indol-(Z)-3-ylidene]-4,5,6,7-tetrahydro-1H-indole-3-carboxamide], the IC50 turned out to be 34 nM.
Still for that read-out and setting: under `Cc1[nH]c2c(c1C(=O)NCC(O)CN1CCCCC1)CCC/C2=C1/C(=O)Nc2ccc(F)cc21` (stereo not drawn) [I-74, N-(2-hydroxy-3-(piperidin-1-yl)propyl)-2-methyl-7-[1,2-dihydro-5-fluoro-2-oxo-3H-indol-(Z)-3-ylidene]-4,5,6,7-tetrahydro-1H-indole-3-carboxamide] stands 13 nM.
For `Cc1[nH]c2c(c1C(=O)NCC(O)CN1CCN(C)CC1)CCC/C2=C1/C(=O)Nc2ccc(F)cc21` (stereo not drawn) [I-77, N-[2-hydroxy-3-(4-methylpiperazin-1-yl)propyl]-2-methyl-7-[1,2-dihydro-5-fluoro-2-oxo-3H-indol-(Z)-3-ylidene]-4,5,6,7-tetrahydro-1H-indole-3-carboxamide], the IC50 stood at 25 nM.
